According to PubChem BioAssay (NCI):
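Where inhibition never reached the appropriate level, the endpoint shown equals the highest concentration tested. Otherwise, values were interpolated linearly from a five-concentration, 48-hour dose response in 96-well plates. GI50: concentration for 50% inhibition of growth. TGI: concentration producing complete growth inhibition.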

Columns and labels:
Test in all cases: NCI tumour cell line growth inhibition, 48 h
MCF7 breast = test system: MCF7 breast
PC-3 prostate = test system: PC-3 prostate
HCC-2998 colon = test system: HCC-2998 colon
NCI-H226 lung = test system: NCI-H226 lung
MALME-3M melanoma = test system: MALME-3M melanoma
NCI/ADR-RES ovarian = test system: NCI/ADR-RES ovarian
T-47D breast = test system: T-47D breast
MDA-MB-231 breast = test system: MDA-MB-231 breast
DU-145 prostate = test system: DU-145 prostate
M14 melanoma = test system: M14 melanoma

| Structure (SMILES) | GI50 (MCF7 breast) [µM] | TGI (MCF7 breast) [µM] | GI50 (PC-3 prostate) [µM] | TGI (PC-3 prostate) [µM] | GI50 (HCC-2998 colon) [µM] | TGI (HCC-2998 colon) [µM] | GI50 (NCI-H226 lung) [µM] | TGI (NCI-H226 lung) [µM] | GI50 (MALME-3M melanoma) [µM] | TGI (MALME-3M melanoma) [µM] | GI50 (NCI/ADR-RES ovarian) [µM] | TGI (NCI/ADR-RES ovarian) [µM] | GI50 (T-47D breast) [µM] | TGI (T-47D breast) [µM] | GI50 (MDA-MB-231 breast) [µM] | TGI (MDA-MB-231 breast) [µM] | GI50 (DU-145 prostate) [µM] | TGI (DU-145 prostate) [µM] | GI50 (M14 melanoma) [µM] | TGI (M14 melanoma) [µM] |
| --- | --- | --- | --- | --- | --- | --- | --- | --- | --- | --- | --- | --- | --- | --- | --- | --- | --- | --- | --- | --- |
| COc1cc(/C=C2\C(=O)Nc3ccc(Cl)cc32)cc(OC)c1OC | 26 | > 100 | 2.93 | > 100 | 5.82 | 61.2 | 51.3 | > 100 | 32 | > 100 | 7.29 | 59.3 | > 100 | > 100 | 11.4 | 37.3 |  |  |  |  |
| COc1cc(-c2n/c(=C\c3c(O)[nH]c4ccccc34)cc3c2=Nc2ccccc2-3)ccc1F | 2.51 | > 100 | 10.2 | 48.8 | 4.32 | > 100 | 19.9 | > 100 | 4.38 | 23.2 | 5.78 | 43 | 6.87 | 82 | 3.91 | 16.8 | 7.3 | 25.5 | 5.2 | 22.3 |
| CCOC(=O)NC(=O)c1cn(CCN(CCO)C(=O)NCCCCCCNC(=O)N(CCO)CCn2cc(C(=O)NC(=O)OCC)c(=O)[nH]c2=O)c(=O)[nH]c1=O |  | > 100 |  |  |  | > 100 |  | > 100 |  | > 100 |  | > 100 |  |  |  |  |  |  |  |  |
| N#CC1(C#N)C(=O)c2ccncc2C1=O |  | > 100 |  | > 100 |  | > 100 |  | > 100 |  | > 100 |  | > 100 |  | > 100 |  | > 100 |  | > 100 |  | > 100 |
| CCCC[n+]1ccn(-c2nc3ccccc3n2C)c1 |  |  |  |  |  | > 100 |  | > 100 |  | > 100 |  |  |  |  |  |  |  |  |  | > 100 |
| C/C=C(\C)C(=O)OC1C2C(C)=CC(=O)C(O)C2(C)C2C3(O)OCC24C1OC(=O)C(OC(C)=O)C4C(C)C3O (stereo unspecified) |  |  |  |  |  | 0.0928 |  | 0.0427 |  |  |  | 31.2 |  |  |  |  |  |  |  |  |
| CN(CCO)CCC1COc2ccccc2O1 (stereo unspecified) |  | > 10 |  | > 10 |  | > 10 |  | > 10 |  | > 10 |  | > 10 |  | > 10 |  | > 10 |  | > 10 |  | > 10 |
| COC1=CC(c2ccc[nH]2)=N/C1=C\c1[nH]c(C)c(CC(=O)NCc2ccccc2)c1C |  |  | 1.1 | 2.6 | 1.55 | 3.07 |  |  |  |  |  |  |  |  |  |  | 1.39 | 2.82 |  |  |
| O=C(N/N=C\c1ccc(N(CCCl)CCCl)cc1)c1cccnc1 | 20.9 | > 100 | 65.4 | > 100 | 55.5 | > 100 | 2.13 | 11.4 | 55 | > 100 | 28.3 | > 100 | 26.5 | > 100 | 24.8 | > 100 | 11.4 | > 100 | 60.2 | > 100 |
| N/C(=C\c1ccc(/C=C(\NC(=O)c2ccccc2)c2nc3c([nH]2)C(=O)c2ccccc2C3=O)cc1)c1nc2c([nH]1)C(=O)c1ccccc1C2=O |  |  |  |  |  |  |  | 27 |  |  |  |  |  |  |  |  |  |  |  | 30.4 |
| COc1ccc2c(c1)C(=O)c1c-2n(CCCN=[N+]=[N-])c(=O)c2cc([N+](=O)[O-])ccc12 | < 0.001 | 4.83 |  | > 100 | 0.013 |  | 0.268 | 0.874 | 0.422 | 9.88 |  | > 100 | 1.57 | > 100 | 33.3 | > 100 |  |  |  | 1.3 |
| N#C[S-].[Ce+3].c1ccc(-c2ccccn2)nc1.c1ccc(-c2ccccn2)nc1.c1ccc(-c2ccccn2)nc1 |  |  |  |  | 18.3 | > 100 | 18 | 63.1 | 23 | 60.7 |  |  |  |  |  |  |  |  | 6.24 | 24.7 |
| CC1=C/C(=N\NS(=O)(=O)c2ccc([N+](=O)[O-])cc2)CC(C)(C)C1 |  | > 100 |  | > 100 |  | > 100 |  |  |  | > 100 |  | > 100 |  | > 100 |  | > 100 |  | > 100 |  | > 100 |
| COC(Cc1cc(C(O)(c2ccc(C(C)(C)C)cc2)c2cc(CC(OC)(c3cc(C(OC)(c4ccc(C(C)(C)C)cc4)c4ccc(C(C)(C)C)cc4)c(C)cc3C)c3cc(C(OC)(c4ccc(C(C)(C)C)cc4)c4ccc(C(C)(C)C)cc4)c(C)cc3C)c(C)cc2C)c(C)cc1C)(c1cc(C(OC)(c2ccc(C(C)(C)C)cc2)c2ccc(C(C)(C)C)cc2)c(C)cc1C)c1cc(C(OC)(c2ccc(C(C)(C)C)cc2)c2ccc(C(C)(C)C)cc2)c(C)cc1C |  | > 75 |  | > 75 |  | > 75 |  | > 75 |  | > 75 |  | > 75 |  | > 75 |  | > 75 |  | > 75 |  | > 75 |
| COc1nc2ccc(Cl)c(C(O)c3ccccc3)c2nc1OC (stereo unspecified) |  | 87.6 |  | > 100 |  |  |  | 54.7 |  | > 100 |  | 63.4 |  | 99.4 |  | 39.9 |  | > 100 |  | 38.8 |
